For 98 compounds, IC50 results are on record in PubChem BioAssay AID1985 (Southern Research Specialized Biocontainment Screening …, 2009).

Where “and” joins values, the source holds several entries; their conditions need not be identical. Identical values can stand only once.

In this test the test system is S. Typhi PhoP-promoter GFP reporter, fluorescence, 4 h. The experiment in a line: modified counter assay using GFP fluorescence, PhoP regulon inhibitor project, dose response (AID 1985).

Turning to `C#CCOCCOCCOCCNc1nc(N2CCN(C(=O)[C@H](Cc3cc4ccccc4[nH]3)n3cc([C@@H](N)C(C)CC)nn3)CC2)nc(N2CCN(C(=O)[C@H](Cc3cc4ccccc4[nH]3)n3cc([C@@H](N)CC(C)C)nn3)CC2)n1` (stereo partly drawn), the IC50 (as a rule, the midpoint of a concentration-inhibition curve) was 54.5 µM.
As for `CN1CCN(C2=Cc3ccccc3Sc3cc(F)ccc32)CC1`, the IC50 is 114 µM.
Regarding `C#CCOCCOCCOCCNc1nc(N2CCN(C(=O)[C@H](CCCCN)n3cc([C@@H](N)CC(C)C)nn3)CC2)nc(N2CCN(C(=O)[C@H](Cc3cc4ccccc4[nH]3)n3cc([C@@H](N)Cc4ccc(O)cc4)nn3)CC2)n1`, the IC50 was 54.5 µM.
For `O=C1C(=O)c2ccccc2-c2ccccc21` the value was 19 µM; for `Clc1cccc(CN2CCc3c([nH]c4ccccc34)C2)c1Cl`, 104 µM; for `CCCCCC(=O)NC(=S)NNC(=O)CC`, 84.2 µM.
For `O/N=C/c1ccc(OCc2ccccc2)c(Cl)c1` the value was 130 µM; for `COc1cc(C(=O)N/N=C/c2ccc(OC(=O)c3cccc(C)c3)c(OC)c2)ccc1O`, 20.9 µM.
Take `Nc1nnnn1/N=C/c1cc([N+](=O)[O-])ccc1O`: the IC50 is 91.5 µM.
Under `O=C(CCN1CCN(c2ccccc2F)CC1)c1ccc(Br)cc1` stands 43.4 µM.
In the case of `C[C@H]1c2cccc(O)c2C(O)=C2C(=O)[C@]3(O)C(O)=C(C(N)=O)C(=O)[C@@H](N(C)C)C3[C@@H](O)C21` (stereo partly drawn), the IC50 is 1.19 µM.
Under `CC(/C=N/Nc1nc2ccccc2[nH]1)=C\c1ccccc1` stands 71.8 µM; under `CN1CCN(C(c2cccc(Cl)c2)c2ccccc2Cl)CC1` (stereo not drawn), 107 µM; under `O=C(N/N=C/c1ccccn1)c1ccc(Br)o1`, 50.1 µM.
For the compound `Cc1cc(C)c(OCCCCNCc2ccccc2)c(Cl)c1`, the IC50 is 113 µM.
Under `Nc1cccc2nc3ccccc3cc12` stands 44.5 µM; under `NC(=NCCCCCCN=C(N)/N=C(\N)Nc1ccc(Cl)cc1)/N=C(\N)Nc1ccc(Cl)cc1`, 3.89 µM and 3.25 µM and 5.35 µM; under `O=C(c1cccs1)c1no[n+]([O-])c1C(=O)c1cccs1`, 14 µM.
For `O=C(/C=C/c1ccccc1)NC(=S)NNC(=O)c1cnccn1`, the IC50 was 146 µM.
On to `CN(Cc1ccccc1O)CC1CCCN(CCc2ccc(Cl)cc2)C1` (stereo not drawn), for which the IC50 is 51.6 µM.
For the compound `CN(C)CCNc1oc(COc2ccc(-c3ccccc3)cc2)nc1C#N`, the IC50 was 78.8 µM.
Turning to `O=C(N/N=C/c1cc(Cl)ccc1O)c1ccncc1`, the IC50 was 22 µM.
With `CCn1cc(C(=O)O)c(=O)c2cc(F)c(N3CCN(C(=S)NC(=O)c4ccccc4C)CC3)cc21`, the IC50 is 28.2 µM.
With `Brc1ccc2c(c1)C(OC1CN3CCC1CC3)c1ccccc1CS2` (stereo not drawn), the IC50 was 95.5 µM.
Regarding `O=[N+]([O-])c1ccc(/C=[N+](\[O-])CCO)o1`, the IC50 was 33.6 µM.
For `O=C(C[n+]1cc(Br)cc2ccccc21)c1ccc(Cl)cc1` the value was 57.8 µM.
As to `COc1cccc(CNCCc2c[nH]c3ccccc23)c1OCc1ccccc1`, the IC50 was 150 µM.
As to `COc1ccc(OCC(O)CNc2ccc(Br)cc2)cc1` (stereo not drawn), the IC50 was 3.55 µM.
For `O=c1cc(-c2ccc(O)cc2)oc2c(O)c(O)c(O)c(O)c12` the value was 40.2 µM.
Under `C#CCOCCOCCOCCNc1nc(N2CCN(C(=O)CCCCCCCCCCNC(=O)[C@H](CO)n3cc(CCCCCN)nn3)CC2)nc(N2CCN(C(=O)CCCCCCCCCCNC(=O)[C@H](CCCN=C(N)N)n3cc(C[C@@H](C)CC)nn3)CC2)n1` stands 142 µM; under `COc1cccc2c(=O)c(C(=O)O)c[nH]c12`, 106 µM.
Under `CN(C)CCCN(C(=O)COc1ccccc1)c1nc2ccc(Cl)cc2s1` stands 141 µM; under `COc1ccc(C(=O)CCN2CCc3cc(OC)c(OC)cc3C2)cc1`, 122 µM; under `Cc1[nH]cnc1C(=O)N/N=C/c1ccc([N+](=O)[O-])s1`, 20.6 µM.
As for `O=C1C(O)=C(O)C(=O)c2ccccc21`, the IC50 was 88.8 µM.
With `Cc1cc(Br)ccc1OCCCCNCCO`, the IC50 was 61.8 µM.
Under `O=C(OCC(=O)N1CCOCC1)c1ccc[nH]c1=O` stands 10.6 µM; under `O=C(CNC(=O)c1cccc(F)c1)N/N=C/c1ccc([N+](=O)[O-])s1`, 23.8 µM; under `COc1ccc(CNCC(O)COc2ccc(C(C)(C)c3ccccc3)cc2)cc1` (stereo not drawn), 37.1 µM.
Consider `CCN1c2ccccc2NC2N=C(OC)C(c3ccccc3)C21` (stereo not drawn), for which the 50% inhibitory concentration (IC50) is 55.8 µM.
Under `Cc1ccsc1/C=N/Nc1ccc(C(=O)O)cc1` stands 94.2 µM; under `Cc1ccc2c(c1)sc(-c1ccc(N(C)C)cc1)[n+]2C`, 23.6 µM; under `O=C(Cn1cc[n+](CC(=O)c2ccc(Cl)cc2Cl)c1)c1ccc(Cl)cc1Cl`, 37.2 µM.
Regarding `Oc1ccc(Cl)cc1Cc1cc(Cl)ccc1O`, the IC50 was 36 µM.
For `COc1ccccc1C(C[N+](=O)[O-])c1c(N)n(C)c(=O)n(C)c1=O` (stereo not drawn) the value was 79.1 µM; for `O=C(O)c1cccc(N2C(=O)CSC2=S)c1`, 62.1 µM; for `O=c1ccnc(Sc2ncccc2[N+](=O)[O-])[nH]1`, 102 µM.
Under `NC(=O)SCC(=O)Nc1ccc(Cl)c(Cl)c1` stands 52.2 µM; under `O=C(NC(CO)Cc1ccc([N+](=O)[O-])cc1)C(Cl)Cl` (stereo not drawn), 4.59 µM.
Take `COc1cccc(Nc2nc(NCCO)c3ccccc3n2)c1`: the IC50 was 84.5 µM.
For `Oc1[nH]c2ccc(Br)cc2c1N=NC(=S)N1CCOCC1` the value was 47.3 µM; for `O=[N+]([O-])c1ccc(/C=N/NC(=S)Nc2ccc(Cl)cc2Cl)s1`, 25 µM; for `Cc1cc(Cl)c(OCCCNCc2ccccc2)c(Br)c1`, 81.7 µM.
For `S=C(Nc1ccc(Cl)c(Cl)c1)NC1CCN(Cc2ccccc2)CC1` the value was 38 µM.
For `Cc1ccc(C(OCC(O)CNCc2ccc(F)cc2)c2ccccc2)cc1` (stereo not drawn) the value was 74.4 µM; for `CO[C@H]1/C=C/O[C@@]2(C)Oc3c(C)c(O)c4c(O)c(c(C=NN5CCN(C)CC5)c(O)c4c3C2=O)NC(=O)/C(C)=C\C=C\[C@H](C)[C@H](O)[C@@H](C)[C@@H](O)[C@@H](C)[C@H](OC(C)=O)[C@@H]1C`, 32.6 µM.
`Clc1cccc(/C=N\Nc2nccs2)c1`: the IC50 is 58.9 µM.
Under `Cc1nc2ccccn2c1C(=O)N/N=C/c1ccc([N+](=O)[O-])o1` stands 33.5 µM.
For `Clc1ccc(CN2CCc3c([nH]c4ccccc34)C2)cc1Cl` the value was 48.5 µM; for `Cc1ccc(Nc2nc(NCCO)c3ccccc3n2)cc1C`, 80.8 µM; for `CCN1CCc2c(C#N)c(NCc3ccccc3)nc(NCCO)c2C1`, 140 µM.
For `O=C1C=CC(=O)N1CCCCCCN1C(=O)C=CC1=O` the value was 112 µM.
Turning to `Cc1cccc(C(=O)NNC(=S)NC(=O)c2cccs2)c1`, the IC50 is 50.1 µM.
Take `O=C(N/N=C\C=C\c1ccc([N+](=O)[O-])o1)c1cccs1`: the IC50 was 27.8 µM.
Under `COc1cccc(/C=N\NC(=O)Cn2nnc3ccccc32)c1O` stands 97.7 µM.
As to `NC(=O)c1ccc(N=C2C(=O)Nc3ccc([N+](=O)[O-])cc32)cc1`, the IC50 is 31.8 µM.
As to `O=c1ccc2cc3c([nH]c4ccc(Br)cc43)oc-2c1O`, the IC50 was 22.5 µM.
For `Cc1cc(C)n(/N=C/c2cc([N+](=O)[O-])ccc2O)c(=O)c1` the value was 70.5 µM; for `O=[N+]([O-])/C=C/c1cc2ccccc2[nH]1`, 64.9 µM; for `O=C(N/N=C/c1sc2ccccc2c1O)c1cccc2ccccc12`, 26.7 µM.
For `COc1ccccc1Nc1c2ccccc2nc2ccccc12`, the IC50 is 80.8 µM.
On to `O=C(NC(=S)NNC(=O)c1cccs1)c1ccc(Br)o1`, for which the IC50 was 25.4 µM.
As for `C=C1c2c(Cl)ccc(O)c2C(O)=C2C(=O)[C@]3(O)C(O)=C(C(N)=O)C(=O)[C@@H](N(C)C)[C@@H]3[C@@H](O)C12` (stereo partly drawn), the IC50 was 0.924 µM.
Under `COc1ccc(/C=N/Nc2cc(C)nc3c(C)cccc23)cc1` stands 37.2 µM.
For `N=c1c2c(n(Cc3ccc(Cl)cc3Cl)c3c1CCC3)CCCC2` the value was 80.7 µM.
With `CCC(=O)N1CCN(c2cc3c(cc2F)c(=O)c(C(=O)O)cn3CC)CC1`, the IC50 is 126 µM.
Under `CC1CC(=O)c2c(cc3c(-c4c(O)cc(O)c5c(O)c6c(cc45)OC(C)CC6=O)c(O)cc(O)c3c2O)O1` (stereo not drawn) stands 27 µM.
As to `Fc1ccc(Nc2ccnc(Nc3ccc(F)cc3)n2)cc1`, the IC50 was 39.3 µM.
Under `COc1ccc(Nc2cc(C)c3c(O)cccc3n2)cc1` stands 34.4 µM; under `Cc1ccc(OCC(O)Cn2c(=N)n(CCN3CCCCC3)c3ccccc32)cc1` (stereo not drawn), 67.9 µM.
Consider `CN1CCc2c(sc(NC(=O)c3ccc([N+](=O)[O-])o3)c2C(N)=O)C1`, for which the 50% inhibitory concentration (IC50) was 11 µM.
Under `Cc1ccc(NC(=S)Nc2ccc(S(=O)(=O)Nc3ncccn3)cc2)cc1Cl` stands 101 µM; under `COc1ccc(C(=O)NC(=S)NNC(=O)c2cnccn2)cc1OC`, 60.1 µM.
For the compound `O=C(Nc1nnc(C(F)(F)F)s1)c1ccc(Br)s1`, the IC50 is 66.8 µM.
In the case of `CCCCCCCCCCOC(=O)Cn1c(COc2ccc(OC)cc2)[n+](C)c2ccccc21`, the IC50 is 19.4 µM and 18.5 µM.
For `Cc1nonc1C(=O)N/N=C/c1ccc(O)cc1O` the value was 29.7 µM; for `CC(C)(c1ccccc1)c1ccc(OCCCNCCO)cc1`, 93.5 µM.
Under `CCc1ccc(NC(=O)Nc2ccncc2)cc1` stands 51.8 µM; under `O=C(N/N=C/c1ccc([N+](=O)[O-])s1)C(O)c1ccccc1` (stereo not drawn), 33.4 µM.
Under `O=CN/N=C/c1c(O)ccc2ccccc12` stands 49 µM; under `CC(C)[C@@H]1CC[C@@H](C)C[C@H]1OC(=O)C[n+]1cc(-c2ccc(Cl)cc2)n2c1CCCCC2`, 142 µM; under `CCN(CC)CCn1c(=N)n(CC(O)COc2cccc(C)c2)c2ccccc21` (stereo not drawn), 85.2 µM.
On to `COc1ccc(C(C[N+](=O)[O-])C2(c3ccc(OC)c(OC)c3)C(=O)c3ccccc3C2=O)cc1` (stereo not drawn), for which the IC50 was 8.15 µM.
As for `c1ccc(Nc2nc(NCc3ccco3)c3ccccc3n2)cc1`, the IC50 is 24 µM.
For `O=C(N/N=C\c1c[nH]c2ccccc12)c1ccc(O)cc1` the value was 134 µM; for `O=C(Oc1c(Br)cc([N+](=O)[O-])cc1Br)c1cccnc1`, 46.5 µM.
Under `COc1cc(/C=C/[N+](=O)[O-])ccc1O` stands 53.4 µM.
As for `CNCCCC1Sc2ccccc2Oc2ccccc21` (stereo not drawn), the IC50 was 144 µM.
